Test results published in patent US20260217732A1, “WRN INHIBITOR” (SUZHOU PUHE BIOPHARMA CO., LTD., priority 2022, published 2026).

Tests used:
[1] = system: SW48 colorectal cancer cells; experiment: 2D antiproliferation on MSI-H SW48 cells, CTG, 5 days; type: cell-based; conditions: Homo sapiens, 120 h; SW48 MSI-H, 5 days
Experimental: The molecules of the present disclosure were tested for their anti-proliferative activity on MSI-H tumor cells.
SW48 colorectal cancer cells with MSI were cultured in a RMI1640 medium containing 10% FBS and 1% penicillin-streptomycin, and the mixture was cultured in a 37° C., 5% CO2 incubator. 40 μL of cell suspension was added to each well of a 384-well microplate. […] of compounds with different concentrations were added to each well using Echo, and the mixtures were cultured in a 37° C., 5% CO2 incubator for 5 days. 40 μL of CTG solution (Promega, Cat No. G7573) was added to each well and incubated in a 37° C., 5% CO2 incubator in the dark for 30 minutes. The luminescence value was read using an Envision multi-function microplate reader (Perkin Elmer, catalog number Envision 2104). The optical signal is proportional to the amount of ATP in the system, while the ATP content directly characterizes the number of viable cells in the system.

[2] = molecular target: T1, WRN enzyme (Homo sapiens, UniProt Q14191); experiment: WRN helicase hydrolysis (unwinding) of double-stranded DNA, fluorescence assay; type: biochemical; conditions: 30 min pre-incubation, 60 min reaction
T1 construct: 10 μL (2×) of WRN enzyme solution was added
Experimental: • The molecules of the present disclosure were tested for their activities on the WRN helicase hydrolysis of double-stranded DNA (Table 1).
A working solution to be tested and a buffer were prepared. The compound to be tested was dissolved in DMSO and subjected to 4× dilution (with 10 μM final concentration as the starting concentration). 0.2 μL of the solution of the compound to be tested was added to the 384-well plate and 10 μL (2×) of WRN enzyme solution was added. The solution was incubated in the dark for 30 minutes. Then, 10 μL of a substrate detection solution containing double-stranded DNA was added to initiate the reaction (the DNA has a length of 19 bp, and labeled with TAMRA and BHQ2 at 3′ and 5′-ends, respectively). The solution was incubated at room temperature for 60 minutes. The inhibitory activities (IC50) against WRN enzyme were calculated based on the change of Ex530/Em590 in the blank group (DMSO) and the compound group.

[3] = system: HT-29 colorectal cancer cells; experiment: 2D antiproliferation on MSS HT-29 cells, CTG, 5 days; type: cell-based; conditions: Homo sapiens, 120 h, HT-29 MSS
Experimental: The molecules of the invention were tested for their anti-proliferative activities on MSS tumor cells.
HT-29 colorectal cancer cells with MSS were cultured in a McCoy's 5A medium containing 10% FBS and 1% penicillin-streptomycin in a 37° C., 5% CO2 constant temperature incubator. 40 μL of cell suspension was added to each well of a 384-well microplate. […] of compounds with different concentrations were added to each well using Echo. The mixtures were cultured in a 37° C., 5% CO2 constant temperature incubator for 5 days. 40 μL of CTG solution (Promega, Cat No. G7573) was added to each well, and the mixture was incubated in a 37° C., 5% CO2 constant temperature incubator for 30 minutes in the dark. The luminescence value was read using an Envision multi-function microplate reader (Perkin Elmer, catalog number Envision 2104). The optical signal is proportional to the amount of ATP in the system, while the ATP content directly characterizes the number of viable cells in the system.

T1 sequence (Q14191 whole entry): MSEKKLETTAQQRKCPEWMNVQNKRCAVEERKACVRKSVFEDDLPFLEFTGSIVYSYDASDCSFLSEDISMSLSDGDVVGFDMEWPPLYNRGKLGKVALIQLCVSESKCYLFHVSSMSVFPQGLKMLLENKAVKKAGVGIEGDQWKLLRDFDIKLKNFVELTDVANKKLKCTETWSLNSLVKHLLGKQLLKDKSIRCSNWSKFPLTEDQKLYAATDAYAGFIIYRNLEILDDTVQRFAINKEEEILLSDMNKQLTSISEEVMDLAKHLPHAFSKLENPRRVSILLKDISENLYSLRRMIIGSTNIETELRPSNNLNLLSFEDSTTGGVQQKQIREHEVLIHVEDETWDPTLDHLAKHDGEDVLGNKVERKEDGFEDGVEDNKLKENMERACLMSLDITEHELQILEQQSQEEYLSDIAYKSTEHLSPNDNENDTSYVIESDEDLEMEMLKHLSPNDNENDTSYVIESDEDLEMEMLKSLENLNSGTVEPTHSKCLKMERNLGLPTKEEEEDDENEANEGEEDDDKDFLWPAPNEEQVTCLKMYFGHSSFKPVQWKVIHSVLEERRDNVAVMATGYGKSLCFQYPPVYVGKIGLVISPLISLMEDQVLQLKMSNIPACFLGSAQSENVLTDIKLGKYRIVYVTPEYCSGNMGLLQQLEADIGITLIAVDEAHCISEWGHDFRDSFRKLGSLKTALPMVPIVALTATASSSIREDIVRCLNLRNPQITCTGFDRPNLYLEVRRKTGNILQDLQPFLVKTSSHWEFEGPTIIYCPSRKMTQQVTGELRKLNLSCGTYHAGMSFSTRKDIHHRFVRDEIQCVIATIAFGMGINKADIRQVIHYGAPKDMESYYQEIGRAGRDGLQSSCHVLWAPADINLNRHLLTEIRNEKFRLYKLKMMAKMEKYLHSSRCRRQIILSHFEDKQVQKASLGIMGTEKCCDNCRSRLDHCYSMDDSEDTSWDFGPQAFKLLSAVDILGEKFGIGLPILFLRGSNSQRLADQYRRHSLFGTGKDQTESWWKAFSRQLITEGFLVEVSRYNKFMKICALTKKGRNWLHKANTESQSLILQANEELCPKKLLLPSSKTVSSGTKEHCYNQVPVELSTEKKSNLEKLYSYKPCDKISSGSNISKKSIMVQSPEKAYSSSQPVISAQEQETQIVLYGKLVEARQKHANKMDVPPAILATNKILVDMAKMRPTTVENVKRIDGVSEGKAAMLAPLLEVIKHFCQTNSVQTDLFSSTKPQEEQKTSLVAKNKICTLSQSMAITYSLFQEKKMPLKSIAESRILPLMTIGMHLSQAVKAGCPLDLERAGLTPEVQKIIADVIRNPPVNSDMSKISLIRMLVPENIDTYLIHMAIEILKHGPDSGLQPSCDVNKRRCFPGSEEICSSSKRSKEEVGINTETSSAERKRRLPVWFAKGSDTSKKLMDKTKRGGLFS

| Structure (SMILES) | IC50 [1] [nM] | IC50 [2] [nM] | IC50 [3] [nM] |
| --- | --- | --- | --- |
| CCc1c(N2CC[C@@H](NC(=O)c3ncnc(C)c3O)C2)c(=O)n2nc(C3=CCOCC3)nc2n1CC(=O)Nc1ccc(C(F)(F)F)cc1Cl [P2] | 1110 | 2.3 | – |
| CCc1c(N2CCN(C(=O)c3ncccc3O)CC2)c(=O)n2nc(-c3cncs3)nc2n1CC(=O)Nc1ccc(C(F)(F)F)cc1Cl [P5] | – | 1.6 | > 10000 |
| CCc1c(N2CCN(C(=O)c3ncccc3O)CC2)c(=O)n2nc(-c3sccc3N)nc2n1CC(=O)Nc1ccc(C(F)(F)F)cc1Cl [P8] | 566 | 3.7 | – |
| CCc1c(N2CCN(C(=O)c3ncccc3O)CC2)c(=O)n2nc(-c3ccc(COC)s3)nc2n1CC(=O)Nc1ccc(C(F)(F)F)cc1Cl [P10] | 125 | 2.1 | > 10000 |
| CCc1c(N2CCN(C(=O)c3ncccc3O)CC2)c(=O)n2nc(-c3cnc(CO)s3)nc2n1CC(=O)Nc1ccc(C(F)(F)F)cc1Cl [P11] | 127 | 1.7 | > 10000 |
| CCc1c(N2CCN(C(=O)c3ncccc3O)CC2)c(=O)n2nc(-c3cnc(C(C)=O)s3)nc2n1CC(=O)Nc1ccc(C(F)(F)F)cc1Cl [P12] | 450 | 9.4 | > 10000 |
| CCc1c(N2CCN(C(=O)c3ncccc3O)CC2)c(=O)n2nc(-c3cc4cn[nH]c4s3)nc2n1CC(=O)Nc1ccc(C(F)(F)F)cc1Cl [P13] | 72 | 2.2 | 9110 |
| CCc1c(N2CCN(C(=O)c3ncccc3O)CC2)c(=O)n2nc(-c3[nH]nc4sccc34)nc2n1CC(=O)Nc1ccc(C(F)(F)F)cc1Cl [P14] | 97 | 4.4 | > 10000 |
| CCc1c(N2CCN(C(=O)c3ncccc3O)CC2)c(=O)n2nc(-c3ccc(C(C)=O)s3)nc2n1CC(=O)Nc1ccc(C(F)(F)F)cc1Cl [P15] | 381 | 1.6 | > 10000 |
| CCc1c(N2CCN(C(=O)c3ncccc3O)CC2)c(=O)n2nc(-c3cc4cnn(C)c4s3)nc2n1CC(=O)Nc1ccc(C(F)(F)F)cc1Cl [P16] | 120 | 2.1 | > 10000 |
| CCc1c(N2CCN(C(=O)c3ncccc3O)CC2)c(=O)n2nc(-c3cc4ccncc4s3)nc2n1CC(=O)Nc1ccc(C(F)(F)F)cc1Cl [P17] | 360 | 2.3 | > 10000 |
| CCc1c(N2CCN(C(=O)c3ncccc3O)CC2)c(=O)n2nc(-c3cc4cnccc4s3)nc2n1CC(=O)Nc1ccc(C(F)(F)F)cc1Cl [P18] | 499 | 1.8 | 4870 |

Continued, values first:

| IC50 [1] [nM] | IC50 [2] [nM] | IC50 [3] [nM] | Structure (SMILES) |
| --- | --- | --- | --- |
| 126 | 1.6 | > 10000 | CCc1c(N2CCN(C(=O)c3ncccc3O)CC2)c(=O)n2nc(-c3cc4c(s3)COC4)nc2n1CC(=O)Nc1ccc(C(F)(F)F)cc1Cl [P20] |
| 480 | 3.3 | > 10000 | CCc1c(N2CCN(C(=O)c3ncccc3O)CC2)c(=O)n2nc(-c3ccc4c(c3)OCO4)nc2n1CC(=O)Nc1ccc(C(F)(F)F)cc1Cl [P21] |
| 39 | 1.7 | > 10000 | CCc1c(N2CCN(C(=O)c3ncnc(C)c3O)CC2)c(=O)n2nc(-c3cc4c(s3)COC4)nc2n1CC(=O)Nc1ccc(Br)cc1C [P25] |
| 126 | 1.5 | > 10000 | CCc1c(N2CCN(C(=O)c3ncnc(C)c3O)CC2)c(=O)n2nc(-c3cc4c(s3)COC4)nc2n1CC(=O)Nc1ccc(C(F)(F)F)cc1F [P32] |
| 139 | 1.8 | > 10000 | CCc1c(N2CCN(C(=O)c3ncccc3O)CC2)c(=O)n2nc(-c3cnc(COC)s3)nc2n1CC(=O)Nc1ccc(C(F)(F)F)cc1Cl [P33] |
| 480 | – | > 10000 | CCc1c(N2CCN(C(=O)c3ncnc(C)c3O)CC2)c(=O)n2nc(-c3ccc4nccn4c3)nc2n1CC(=O)Nc1ccc(C(F)(F)F)cc1C [P47] |
| 162 | – | > 10000 | CCc1c(N2CCN(C(=O)c3ncnc(C)c3O)CC2)c(=O)n2nc(-c3cc4cn[nH]c4s3)nc2n1CC(=O)Nc1ccc(C(F)(F)F)cc1C [P50] |
| 55 | – | > 10000 | CCc1c(N2CCN(C(=O)c3ncnc(C)c3O)[C@H](C)C2)c(=O)n2nc(-c3cc4c(s3)COC4)nc2n1CC(=O)Nc1ccc(C(F)(F)F)cc1C [P53] |
| 123 | 2.9 | > 10000 | CCc1c(N2CCN(C(=O)c3ncccc3O)CC2)c(=O)n2nc(-c3cc4c(s3)COC4)nc2n1CC(=O)Nc1ccc(C(F)(F)F)c2ccsc12 [P58] |
